{"source": "patent US8754071B2", "about": "(priority 2011, dated 2014)", "data": [{"target": "T1, c-kit (Homo sapiens, UniProt P10721)", "T1 construct": "human Mo7e cells which endogenously express c-kit; endogenous in cells; host or cells: human Mo7e cells (promegakaryocytic leukemia line), stimulated with human recombinant SCF", "T1 sequence (P10721 26-976)": "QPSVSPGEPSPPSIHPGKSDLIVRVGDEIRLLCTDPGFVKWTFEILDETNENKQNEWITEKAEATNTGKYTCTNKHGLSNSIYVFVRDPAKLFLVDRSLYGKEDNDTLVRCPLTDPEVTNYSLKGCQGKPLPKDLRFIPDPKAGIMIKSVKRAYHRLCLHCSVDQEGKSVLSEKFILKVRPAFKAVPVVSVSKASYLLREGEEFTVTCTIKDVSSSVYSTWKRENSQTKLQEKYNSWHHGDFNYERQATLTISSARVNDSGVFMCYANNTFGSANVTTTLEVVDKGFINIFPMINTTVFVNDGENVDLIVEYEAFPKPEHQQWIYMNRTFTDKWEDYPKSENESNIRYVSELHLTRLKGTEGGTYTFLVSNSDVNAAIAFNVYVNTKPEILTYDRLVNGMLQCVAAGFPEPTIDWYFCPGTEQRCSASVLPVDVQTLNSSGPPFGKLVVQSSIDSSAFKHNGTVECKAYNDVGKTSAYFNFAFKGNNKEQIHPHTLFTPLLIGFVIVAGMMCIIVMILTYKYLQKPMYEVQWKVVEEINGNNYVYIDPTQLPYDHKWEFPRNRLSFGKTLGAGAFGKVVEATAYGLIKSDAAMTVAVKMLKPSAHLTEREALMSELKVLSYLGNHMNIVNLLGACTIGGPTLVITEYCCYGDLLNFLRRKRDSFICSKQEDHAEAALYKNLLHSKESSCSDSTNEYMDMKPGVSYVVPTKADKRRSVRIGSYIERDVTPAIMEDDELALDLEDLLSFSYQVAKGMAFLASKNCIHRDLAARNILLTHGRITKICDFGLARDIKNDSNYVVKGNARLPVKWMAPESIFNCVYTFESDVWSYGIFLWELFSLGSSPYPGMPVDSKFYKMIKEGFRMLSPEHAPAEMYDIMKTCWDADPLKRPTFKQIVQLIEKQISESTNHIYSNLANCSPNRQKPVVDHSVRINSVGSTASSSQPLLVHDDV", "experiment": "Mo7e cell proliferation assay (SCF dependent proliferation)", "format": "cell-based", "conditions": "Table 1; human Mo7e cells stimulated with SCF, 48 hours, CellTiter Glo; 1% FBS; read-out: c-kit (Mo7e)", "protocol": "(§1) Mo7e Cell Proliferation Assay The compounds of Table 1 and Table 2 were tested for inhibition of SCF dependent proliferation using human Mo7e cells which endogenously express c-kit in a 384 well format. […] After 48 hours of incubation at 37° C., cell viability was measured by adding 25 uL of CellTiter Glo (Promega) to the cells and the luminescence was measured by a […] camera (Molecular Devices). […] The IC50 value is given as that concentration of the test compound in question that provoke a response halfway between the baseline and maximum responses.", "units": {"IC50": "µM"}, "values": [{"compound": "COC(=O)N1CC(c2nc(-c3ccc(C)c(NC(=O)c4cnc5cc(-c6cc[nH]n6)ccn45)c3)no2)C1", "note": "[F68, methyl 3-(3-(3-(7-(1H-pyrazol-3-yl)imidazo[1,2-a]pyridine-3-carboxamido)-4-methylphenyl)-1,2,4-oxadiazol-5-yl)azetidine-1-carboxylate]", "IC50": 0.013}, {"compound": "COC(=O)N1CC(c2nc(-c3ccc(C)c(NC(=O)c4cnc5cc(-c6cnn(CCN7CCOCC7)c6)ccn45)c3)no2)C1", "note": "[F63]", "IC50": 0.013}, {"compound": "COC(=O)N1CC(c2nc(-c3ccc(C)c(NC(=O)c4cnc5cc(C(F)(F)F)ccn45)c3)no2)C1", "note": "[F57, methyl 3-(3-(4-methyl-3-(7-(trifluoromethyl)imidazo[1,2-a]pyridine-3-carboxamido)phenyl)-1,2,4-oxadiazol-5-yl)azetidine-1-carboxylate]", "IC50": 0.13}, {"compound": "Cc1ccn2c(C(=O)Nc3cc(-c4noc(N5CCC(F)CC5)n4)ccc3C)cnc2c1", "note": "[F90]", "IC50": 0.033}, {"compound": "Cc1ccc(-c2nc(N3CCOCC3)no2)cc1NC(=O)c1cnc2ccccn12", "note": "[F75, N-(2-methyl-5-(3-morpholino-1,2,4-oxadiazol-5-yl)phenyl)imidazo[1,2-a]pyridine-3-carboxamide]", "IC50": 0.061}, {"compound": "Cc1ccc(-c2noc([C@@H]3CCCN3S(C)(=O)=O)n2)cc1NC(=O)c1cnc2ccccn12", "note": "[F36]", "IC50": 0.093}, {"compound": "Cc1ccc(-c2noc(CC3CCCO3)n2)cc1NC(=O)c1cnc2ccccn12", "note": "(stereo not shown) [F18]", "IC50": 0.064}, {"compound": "Cc1ccc(-c2nc(N3CCC(F)(F)CC3)no2)cc1NC(=O)c1cnc2ccccn12", "note": "[F4]", "IC50": 0.035}, {"compound": "Cc1ccc(-c2noc(CN3CCOCC3)n2)cc1NC(=O)c1cnc2ccccn12", "note": "[F22, N-(2-methyl-5-(5-(morpholinomethyl)-1,2,4-oxadiazol-3-yl)phenyl)imidazo[1,2-a]pyridine-3-carboxamide]", "IC50": 0.073}, {"compound": "Cc1ccc(Nc2noc([C@H]3CCCO3)n2)cc1NC(=O)c1cnc2ccccn12", "note": "[F71]", "IC50": 0.011}, {"compound": "Cc1ccn2c(C(=O)Nc3cc(-c4noc(N5CCOCC5)n4)ccc3C)cnc2c1", "note": "[F91]", "IC50": 0.064}, {"compound": "Cc1ccc(-c2noc(CC3CCOCC3)n2)cc1NC(=O)c1cnc2ccccn12", "note": "[F17]", "IC50": 0.027}, {"compound": "Cc1ccc(-c2noc(CC3CCCCO3)n2)cc1NC(=O)c1cnc2ccccn12", "note": "(stereo not shown) [F44]", "IC50": 0.017}, {"compound": "Cc1ccc(-c2noc(C3CN(C(=O)OC(C)(C)C)C3)n2)cc1NC(=O)c1cnc2ccccn12", "note": "[F13, tert-butyl 3-(3-(3-(imidazo[1,2-a]pyridine-3-carboxamido)-4-methylphenyl)-1,2,4-oxadiazol-5-yl)azetidine-1-carboxylate]", "IC50": 0.623}, {"compound": "Cc1ccc(-c2noc([C@@H]3CCN3S(=O)(=O)C(C)C)n2)cc1NC(=O)c1cnc2ccccn12", "note": "[F47]", "IC50": 0.047}, {"compound": "COC(=O)N1CC(c2nc(-c3ccc(C)c(NC(=O)c4cnc5ccc(N6CCOCC6)cn45)c3)no2)C1", "note": "[F83]", "IC50": 0.04}, {"compound": "COC(=O)N1CC(c2nc(-c3ccc(C)c(NC(=O)c4cnc5cc(CCC(C)=O)ccn45)c3)no2)C1", "note": "[F73, methyl 3-(3-(4-methyl-3-(7-(3-oxobutyl)imidazo[1,2-a]pyridine-3-carboxamido)phenyl)-1,2,4-oxadiazol-5-yl)azetidine-1-carboxylate]", "IC50": 0.03}, {"compound": "Cc1ccc(-c2noc([C@@H]3CCN3C(=O)OC(C)(C)C)n2)cc1NC(=O)c1cnc2ccccn12", "note": "[F24]", "IC50": 0.08}, {"compound": "COC(=O)N1CC(c2nc(-c3ccc(C)c(NC(=O)c4cnc5cc(CCC(C)(C)O)ccn45)c3)no2)C1", "note": "[F74, methyl 3-(3-(3-(7-(3-hydroxy-3-methylbutyl)imidazo[1,2-a]pyridine-3-carboxamido)-4-methylphenyl)-1,2,4-oxadiazol-5-yl)azetidine-1-carboxylate]", "IC50": 0.051}, {"compound": "Cc1ccc(-c2noc([C@H](C)N3CC(F)(F)C3)n2)cc1NC(=O)c1cnc2ccccn12", "note": "[F50]", "IC50": 0.077}]}, {"target": "T1, c-kit", "experiment": "Mo7e cell proliferation assay (SCF dependent proliferation)", "format": "cell-based", "conditions": "Table 2; human Mo7e cells stimulated with SCF, 48 hours, CellTiter Glo; 1% FBS; read-out: c-kit (Mo7e)", "protocol": "as §1", "units": {"IC50": "µM"}, "values": [{"compound": "Cc1ccc(-c2noc(C3CN(C(=O)OC(C)(C)C)CCO3)n2)cc1NC(=O)c1cnc2ccccn12", "note": "(stereo not shown) [F277]", "IC50": 1.25}, {"compound": "Cc1ccc(-c2noc([C@H]3COCCN3C(=O)OC(C)(C)C)n2)cc1NC(=O)c1cnc2ccccn12", "note": "[F117]", "IC50": 0.629}, {"compound": "Cc1ccc(-c2noc([C@H]3C[C@@H](O)CN3S(C)(=O)=O)n2)cc1NC(=O)c1cnc2ccc(F)cn12", "note": "[F273]", "IC50": 1.17}, {"compound": "Cc1ccc(-c2noc([C@@H]3CCCC(=O)N3)n2)cc1NC(=O)c1cnc2ccccn12", "note": "[F119]", "IC50": 0.434}, {"compound": "Cc1ccc(-c2noc(C3CCNC3)n2)cc1NC(=O)c1cnc2ccccn12", "note": "(stereo not shown) [F296]", "IC50": 2.44}, {"compound": "Cc1ccc(-c2noc(COC(=O)NC3CN(C)C3)n2)cc1NC(=O)c1cnc2ccccn12", "note": "[F137]", "IC50": 0.792}, {"compound": "COCC(=O)NC1(c2nc(-c3ccc(C)c(NC(=O)c4cnc5ccccn45)c3)no2)COC1", "note": "[F141]", "IC50": 0.7}, {"compound": "Cc1ccc(-c2noc(CCC(=O)N3CCOCC3)n2)cc1NC(=O)c1cnc2ccccn12", "note": "[F124]", "IC50": 0.426}, {"compound": "Cc1cc(F)c(-c2noc(C3CN(C(=O)OC(C)(C)C)C3)n2)cc1NC(=O)c1cnc2ccccn12", "note": "[F279]", "IC50": 1.28}, {"compound": "Cc1ccc(-c2noc(C3CN(S(=O)(=O)c4cnn(C)c4)C3)n2)cc1NC(=O)c1cnc2ccccn12", "note": "[F217]", "IC50": 0.173}, {"compound": "Cc1ccc(-c2noc([C@H]3COCCN3)n2)cc1NC(=O)c1cnc2ccccn12", "note": "[F118]", "IC50": 0.936}, {"compound": "Cc1ccc(-c2noc([C@H]3C[C@@H](O)CN3)n2)cc1NC(=O)c1cnc2ccc(F)cn12", "note": "[F302]", "IC50": 4.33}, {"compound": "Cc1ccc(-c2noc(C3CN(S(=O)(=O)c4cn(C)cn4)C3)n2)cc1NC(=O)c1cnc2ccccn12", "note": "[F301]", "IC50": 3.97}, {"compound": "COC(=O)N1CC[C@@H](Cc2nc(-c3ccc(C)c(NC(=O)c4cnc5ccccn45)c3)no2)C1", "note": "[F204]", "IC50": 0.2}, {"compound": "COCC(c1nc(-c2ccc(C)c(NC(=O)c3cnc4ccccn34)c2)no1)N1CCC(F)(F)C1", "note": "(stereo not shown) [F237]", "IC50": 0.109}, {"compound": "Cc1ccn2c(C(=O)Nc3cc(-c4noc(N5CC(S(C)(=O)=O)C5)n4)ccc3C)cnc2c1", "note": "[F281]", "IC50": 1.37}, {"compound": "Cc1ccc(-c2noc(C3(C)COC3)n2)cc1NC(=O)c1cnc2ccccn12", "note": "[F128]", "IC50": 0.14}, {"compound": "COC(=O)CCS(=O)(=O)N1CC(c2nc(-c3ccc(C)c(NC(=O)c4cnc5ccccn45)c3)no2)C1", "note": "[F161]", "IC50": 0.145}, {"compound": "Cc1ccc(-c2noc(C3CCC(=O)N3)n2)cc1NC(=O)c1cnc2ccccn12", "note": "(stereo not shown) [F192]", "IC50": 0.672}, {"compound": "COC(=O)NC1(c2nc(-c3ccc(C)c(NC(=O)c4cnc5ccccn45)c3)no2)COC1", "note": "[F140]", "IC50": 0.103}, {"compound": "Cc1ccc(-c2noc(C3CCN(S(C)(=O)=O)C3)n2)cc1NC(=O)c1cnc2ccccn12", "note": "(stereo not shown) [F170]", "IC50": 0.137}, {"compound": "Cc1ccc(-c2noc(C3CN(C(=O)N(C)C)C3)n2)cc1NC(=O)c1cnc2ccccn12", "note": "[F174]", "IC50": 0.831}, {"compound": "Cc1ccc(-c2noc([C@@H]3CC(F)(F)CN3)n2)cc1NC(=O)c1cnc2ccccn12", "note": "[F121]", "IC50": 0.205}, {"compound": "COC(=O)N1CC(c2nc(-c3ccc(C)c(NC(=O)c4cnc5ccc(CCc6nn[nH]n6)cn45)c3)no2)C1", "note": "[F308]", "IC50": "> 10"}, {"compound": "COC(=O)N1CC(c2nc(-c3ccc(C)c(NC(=O)c4cnc5ccc(CO)cn45)c3)no2)C1", "note": "[F266]", "IC50": 0.523}, {"compound": "Cc1ccc(-c2noc(C3C[C@@H](O)CN3)n2)cc1NC(=O)c1cnc2ccc(F)cn12", "note": "(stereo partly shown) [F305]", "IC50": 8.08}, {"compound": "COC(=O)N1CC(c2nc(-c3ccc(C)c(NC(=O)c4cnc5c(F)cccn45)c3)no2)C1", "note": "[F242]", "IC50": 0.812}, {"compound": "Cc1ccc(-c2noc(CC3CCNCC3)n2)cc1NC(=O)c1cnc2ccccn12", "note": "[F289]", "IC50": 1.88}, {"compound": "Cc1ccc(-c2noc(CC3CCNC3)n2)cc1NC(=O)c1cnc2ccccn12", "note": "(stereo not shown) [F304]", "IC50": 5.23}, {"compound": "Cc1ccc(-c2noc(CCC(=O)N3CCC(F)(F)C3)n2)cc1NC(=O)c1cnc2ccccn12", "note": "[F125]", "IC50": 0.426}, {"compound": "Cc1ccc(-c2noc(C3CN(S(=O)(=O)c4cn[nH]c4)C3)n2)cc1NC(=O)c1cnc2ccccn12", "note": "[F218]", "IC50": 0.155}, {"compound": "Cc1ccc(-c2noc(C3CN(C(=O)OC(C)(C)C)C3)n2)cc1NC(=O)c1cnc2ccccn12", "note": "[F113]", "IC50": 0.623}, {"compound": "Cn1ccc(S(=O)(=O)N2CC(c3nc(-c4ccc(F)c(NC(=O)c5cnc6ccccn56)c4)no3)C2)n1", "note": "[F221]", "IC50": 0.851}, {"compound": "COCc1n[nH]c(-c2ccc3ncc(C(=O)Nc4cc(-c5noc(C6CN(C(=O)OC)C6)n5)ccc4C)n3c2)n1", "note": "[F253]", "IC50": 0.215}, {"compound": "Cc1ccc(-c2noc(CNC(=O)[C@@H]3CCCO3)n2)cc1NC(=O)c1cnc2ccccn12", "note": "[F147]", "IC50": 0.232}, {"compound": "COC(=O)N1CC[C@H]1c1nc(-c2ccc(C)c(NC(=O)c3cnc4ccccn34)c2)no1", "note": "[F151]", "IC50": 0.357}, {"compound": "Cc1ccc(-c2noc([C@H]3CCCN3)n2)cc1NC(=O)c1cnc2ccccn12", "note": "[F200]", "IC50": 0.395}, {"compound": "Cc1ccc(-c2noc([C@@H]3CCCO3)n2)cc1NC(=O)c1cnc2ccccn12", "note": "[F297]", "IC50": 2.79}, {"compound": "COC(=O)N1CC(c2nc(-c3ccc(C)c(NC(=O)c4cnc5ccc(C#N)cn45)c3)no2)C1", "note": "[F236]", "IC50": 0.103}, {"compound": "Cc1ccc(-c2noc(CC3CNC3)n2)cc1NC(=O)c1cnc2ccccn12", "note": "[F295]", "IC50": 2.2}, {"compound": "Cc1ccc(-c2noc(C3CNC3)n2)cc1NC(=O)c1cnc2ccccn12", "note": "[F298]", "IC50": 2.86}, {"compound": "Cc1ccc(-c2nc(C3CN(C(=O)OC(C)(C)C)C3)no2)cc1NC(=O)c1cnc2ccccn12", "note": "[F300]", "IC50": 3.56}, {"compound": "Cc1ccc(-c2noc(C[C@H]3CCNC3)n2)cc1NC(=O)c1cnc2ccccn12", "note": "[F284]", "IC50": 1.65}]}, {"target": "T1, c-kit", "experiment": "Mo7e cell proliferation assay (SCF dependent proliferation)", "format": "cell-based", "conditions": "c-kit (Mo7e) μM, Table 1; human Mo7e cells stimulated with SCF, 48 hours, CellTiter Glo; 1% FBS", "protocol": "as §1", "units": {"IC50": "µM"}, "values": [{"compound": "Cc1ccc(-c2noc(C3CCC(F)(F)CO3)n2)cc1NC(=O)c1cnc2ccccn12", "note": "(stereo not shown) [F10, N-(5-(5-(5,5-difluorotetrahydro-2H-pyran-2-yl)-1,2,4-oxadiazol-3-yl)-2-methylphenyl)imidazo[1,2-a]pyridine-3-carboxamide]", "IC50": 0.023}]}]}
